Reference: US20240247015A1, “PHOSPHORUS DERIVATIVES AS NOVEL SOS1 INHIBITORS” (BAYER AKTIENGESELLSCHAFT, priority 2021, published 2024)
pIC50: −log10 of the molar value.

biological target: interaction of human SOS1 (SOS1) with human K-RasG12C (Homo sapiens (Human), UniProt Q07889); experiment: Biochemical assay: hK-RasG12C interaction assay with hSOS1 (HTRF); type: binding; conditions: GST-hK-RasG12C with His-hSOS1, 60 min incubation at 20° C., mean, read-out: K-RasG12C - SOS interaction assay IC50 (mean)
Sequence (Q07889 564-1049 limits assumed): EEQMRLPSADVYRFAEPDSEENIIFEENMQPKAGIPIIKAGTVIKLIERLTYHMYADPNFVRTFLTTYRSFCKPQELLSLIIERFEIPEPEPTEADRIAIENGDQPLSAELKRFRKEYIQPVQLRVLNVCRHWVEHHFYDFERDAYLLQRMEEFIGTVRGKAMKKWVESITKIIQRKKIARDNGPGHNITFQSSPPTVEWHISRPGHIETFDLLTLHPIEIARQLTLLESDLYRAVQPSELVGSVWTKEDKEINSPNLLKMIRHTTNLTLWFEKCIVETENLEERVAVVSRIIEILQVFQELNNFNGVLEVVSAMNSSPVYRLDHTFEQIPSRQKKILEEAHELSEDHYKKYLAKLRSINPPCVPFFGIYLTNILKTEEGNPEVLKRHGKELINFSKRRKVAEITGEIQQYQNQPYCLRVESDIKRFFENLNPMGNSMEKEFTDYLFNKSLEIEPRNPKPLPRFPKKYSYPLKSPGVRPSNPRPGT
Method in brief: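 Compounds, duplicates at 11 concentrations from 0.073 nM to 20 µM, were preincubated 2 min with 10 nM GST-hK-RasG12C, then 20 nM His-hSOS1 was added, all at 20 °C. After 60 min, 665/620 nm HTRF ratio normalized to DMSO and SOS1-free controls; IC50 by 4-parameter fit.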

SMILES	pIC50
Cc1nc(N[C@H](C)c2cccc(C(F)F)c2F)c2cc(P3(=O)CCN(C(=O)[C@@H](C)O)CC3)ncc2n1 [Example 150, 4-[4-{{(1R)-1-[3-(difluoromethyl)-2-fluorophenyl]ethyl}amino)-2-methylpyrido[3,4-d]pyrimidin-6-yl]-1-[(2R)-2-hydroxypropanoyl]-1,4lambda^5-azaphosphinan-4-one]	8.32
Cc1nc(N[C@H](C)c2cccc(C(F)F)c2F)c2cc(P3(=O)CCN(C(=O)C4(F)CC4)CC3)ncc2n1 [Example 151, 4-[4-{{(1R)-1-[3-(difluoromethyl)-2-fluorophenyl]ethyl}amino)-2-methylpyrido[3,4-d]pyrimidin-6-yl]-1-(1-fluorocyclopropane-1-carbonyl)-1,4lambda^5-azaphosphinan-4-one]	7.91
Cc1nc(N[C@H](C)c2cccc(C(F)F)c2F)c2cc(P3(=O)CCN(C(=O)C4(C#N)CC4)CC3)ncc2n1 [Example 152, 1-{4-[4-{{(1R)-1-[3-(difluoromethyl)-2-fluorophenyl]ethyl}amino)-2-methylpyrido[3,4-d]pyrimidin-6-yl]-4-oxo-1,4lambda5-azaphosphinane-1-carbonyl}cyclopropane-1-carbonitrile]	7.90
Cc1nc(N[C@H](C)c2cccc(C(F)F)c2F)c2cc(P3(=O)CCN(C(=O)C(C)C)CC3)ncc2n1 [Example 153, 4-[4-({(1R)-1-[3-(difluoromethyl)-2-fluorophenyl]ethyl}amino)-2-methylpyrido[3,4-d]pyrimidin-6-yl]-1-(2-methylpropanoyl)-1,4lambda^5-azaphosphinan-4-one]	8.13
COCC(=O)N1CCP(=O)(c2cc3c(N[C@H](C)c4cccc(C(F)F)c4F)nc(C)nc3cn2)CC1 [Example 154, 4-[4-{{(1R)-1-[3-(difluoromethyl)-2-fluorophenyl]ethyl}amino)-2-methylpyrido[3,4-d]pyrimidin-6-yl]-1-(methoxyacetyl)-1,4lambda^5-azaphosphinan-4-one]	8.21
CO[C@H](C)C(=O)N1CCP(=O)(c2cc3c(N[C@H](C)c4cccc(C(F)F)c4F)nc(C)nc3cn2)CC1 [Example 155, 4-[4-{{(1R)-1-[3-(difluoromethyl)-2-fluorophenyl]ethyl}amino)-2-methylpyrido[3,4-d]pyrimidin-6-yl]-1-[(2R)-2-methoxypropanoyl]-1,4lambda^5-azaphosphinan-4-one]	7.95
Cc1nc(N[C@H](C)c2cccc(C(F)F)c2F)c2cc(P3(=O)CCN(C(=O)C4(O)CC4)CC3)ncc2n1 [Example 156, 4-[4-{{(1R)-1-[3-(difluoromethyl)-2-fluorophenyl]ethyl}amino)-2-methylpyrido[3,4-d]pyrimidin-6-yl]-1-(1-hydroxycyclopropane-1-carbonyl)-1,4lambda^5-azaphosphinan-4-one]	7.94
Cc1nc(N[C@H](C)c2cccc(C(F)F)c2F)c2cc(P3(=O)CCN(C(=O)[C@H](C)O)CC3)ncc2n1 [Example 157, 4-[4-{{(1R)-1-[3-(difluoromethyl)-2-fluorophenyl]ethyl}amino)-2-methylpyrido[3,4-d]pyrimidin-6-yl]-1-[(2S)-2-hydroxypropanoyl]-1,4lambda^5-azaphosphinan-4-one]	8.30
Cc1nc(N[C@H](C)c2cccc(C(F)F)c2F)c2cc(P3(=O)CCN(C(=O)C4COC4)CC3)ncc2n1 [Example 158, 4-[4-{{(1R)-1-[3-(difluoromethyl)-2-fluorophenyl]ethyl}amino)-2-methylpyrido[3,4-d]pyrimidin-6-yl]-1-(oxetane-3-carbonyl)-1,4lambda^5-azaphosphinan-4-one]	8.10
Cc1nc(N[C@H](C)c2cccc(C(F)F)c2F)c2cc(P3(=O)CCN(C(=O)C4(C(F)F)CC4)CC3)ncc2n1 [Example 159, 1-[1-(difluoromethyl)cyclopropane-1-carbonyl]-4-[4-{{(1R)-1-[3-(difluoromethyl)-2-fluorophenyl]ethyl}amino)-2-methylpyrido[3,4-d]pyrimidin-6-yl]-1,4lambda^5-azaphosphinan-4-one]	7.90
Cc1nc(N[C@H](C)c2cccc(C(F)F)c2F)c2cc(P3(=O)CCN(C(=O)C4CC(F)(F)C4)CC3)ncc2n1 [Example 160, 1-(3,3-difluorocyclobutane-1-carbonyl)-4-[4-({(1R)-1-[3-(difluoromethyl)-2-fluorophenyl]ethyl}amino)-2-methylpyrido[3,4-d]pyrimidin-6-yl]-1,4lambda^5-azaphosphinan-4-one]	8.10
Cc1nc(N[C@H](C)c2cccc(C(F)F)c2F)c2cc(P3(=O)CCN(C(=O)c4cnn(C)c4)CC3)ncc2n1 [Example 161, 4-[4-{{(1R)-1-[3-(difluoromethyl)-2-fluorophenyl]ethyl}amino)-2-methylpyrido[3,4-d]pyrimidin-6-yl]-1-(1-methyl-1H-pyrazole-4-carbonyl)-1,4lambda^5-azaphosphinan-4-one]	7.87
Cc1nc(N[C@H](C)c2cccc(C(F)(F)F)c2C)c2cc(P3(=O)CCN(C(=O)CC#N)CC3)ncc2n1 [Example 162, 3-{4-[2-methyl-4-({(1R)-1-[2-methyl-3-(trifluoromethyl)phenyl]ethyl}amino)pyrido[3,4-d]pyrimidin-6-yl]-4-oxo-1,4lambda^5-azaphosphinan-1-yl}-3-oxopropanenitrile]	6.57
Cc1nc(N[C@H](C)c2cccc(C(F)F)c2F)c2cc(P3(=O)CCN(C(=O)C4CC4)CC3)ncc2n1 [Example 163, 1-(cyclopropanecarbonyl)-4-[4-({(1R)-1-[3-(difluoromethyl)-2-fluorophenyl]ethyl}amino)-2-methylpyrido[3,4-d]pyrimidin-6-yl]-1,4lambda^5-azaphosphinan-4-one]	8.32
Cc1nc(N[C@H](C)c2cccc(C(F)(F)F)c2C)c2cc(P3(=O)CCN(C(=O)C4COC4)CC3)ncc2n1 [Example 164, 4-[2-methyl-4-{{(1R)-1-[2-methyl-3-(trifluoromethyl)phenyl]ethyl}amino)pyrido[3,4-d]pyrimidin-6-yl]-1-(oxetane-3-carbonyl)-1,4lambda^5-azaphosphinan-4-one]	8.15
Cc1nc(N[C@H](C)c2cccc(C(F)(F)F)c2C)c2cc(P3(=O)CCN(C(=O)[C@H](C)O)CC3)ncc2n1 [Example 165, 1-[(2S)-2-hydroxypropanoyl]-4-[2-methyl-4-{{(1R)-1-[2-methyl-3-(trifluoromethyl)phenyl]ethyl}amino)pyrido[3,4-d]pyrimidin-6-yl]-1,4lambda^5-azaphosphinan-4-one]	8.36
Cc1nc(N[C@H](C)c2cccc(C(F)(F)F)c2C)c2cc(P3(=O)CCN(C(=O)[C@@H](C)O)CC3)ncc2n1 [Example 166, 1-[(2R)-2-hydroxypropanoyl]-4-[2-methyl-4-{{(1R)-1-[2-methyl-3-(trifluoromethyl)phenyl]ethyl}amino)pyrido[3,4-d]pyrimidin-6-yl]-1,4lambda^5-azaphosphinan-4-one]	8.32
Cc1nc(N[C@H](C)c2cccc(C(F)(F)F)c2C)c2cc(P3(=O)CCN(C(=O)C4(C#N)CC4)CC3)ncc2n1 [Example 167, 1-{4-[2-methyl-4-{{(1R)-1-[2-methyl-3-(trifluoromethyl)phenyl]ethyl}amino)pyrido[3,4-d]pyrimidin-6-yl]-4-oxo-1,4lambda^5-azaphosphinane-1-carbonyl}cyclopropane-1-carbonitrile]	7.90
